Here are results for one compound from ChEMBL document CHEMBL1641593, “Benzothieno[3,2-b]quinolinium and 3-(phenylthio)quinolinium compounds: Synthesis and evaluation against opportunistic fungal pathogens” (Bioorg Med Chem, 2011).

In data set [1] the test system is Cryptococcus neoformans. The data set is described as follows: Antifungal activity against Cryptococcus neoformans ATCC 52657-infected mouse assessed as reduction of CFU per gram of brain at 10 mg/kg, ip qd for 5 days relative to control. Format: functional. More on the design: scale not given: the % may be the effect or the level left. As to conditions: route intraperitoneal.

Data set [2] concerns Candida albicans. In words: Antifungal activity against Candida albicans B311 ATCC 32354-infected mouse assessed as reduction of CFU per gram of kidney at 10 mg/kg, ip qd for 3 days relative to control. As to conditions: route intraperitoneal. The data set is classed as functional. Also noted: scale not given: the % may be the effect or the level left.
The next data set concerns Aspergillus fumigatus. The data set is described as follows: Antifungal activity against Aspergillus fumigatus ATCC 90906 by CLSI method. Format: functional, organism-based.
Data set [3] deals with Candida albicans. In words: Antifungal activity against Candida albicans ATCC 90028 by CLSI method. Format: functional, organism-based. As to conditions: Candida albicans, ATCC 90028.
A short description of data set [4]: Toxicity in Candida albicans B311 ATCC 32354-infected ip dosed mouse administered qd for 3 days. Format: organism-based. Conditions: in vivo.
The test system of data set [5] is Cryptococcus neoformans. The data set is described as follows: Antifungal activity against Cryptococcus neoformans ATCC 52657-infected mouse assessed as reduction of CFU per gram of brain at 1.2 mg/kg, ip qd for 5 days relative to control. The data set is classed as functional. Also noted: scale not given: the % may be the effect or the level left. As to conditions: route intraperitoneal.

The subject of data set [6] is Mus musculus. The data set is described as follows: Toxicity in Candida albicans B311 ATCC 32354-infected mouse assessed as gross pathological lesions at 1 to 10 mg/kg, ip qd for 3 days. As to conditions: in vivo, 72 h. The data set is classed as organism-based. More on the design: dose 1-10 mg/kg, route intraperitoneal.
Data set [7] has as its system Cryptococcus neoformans. The data set is described as follows: Antifungal activity against Cryptococcus neoformans ATCC 52657-infected mouse assessed as reduction of CFU per gram of brain at 1 mg/kg, ip qd for 5 days relative to control. As to conditions: route intraperitoneal. More on the design: scale not given: the % may be the effect or the level left. Format: functional.

The subject of data set [8] is Cryptococcus neoformans. In words: Antifungal activity against Cryptococcus neoformans ATCC 52657-infected mouse assessed as reduction of CFU per gram of brain at 5 mg/kg, ip qd for 5 days relative to control. The data set is classed as functional. Also noted: scale not given: the % may be the effect or the level left. As to conditions: route intraperitoneal.
The subject of data set [9] is Cryptococcus neoformans. The data set is described as follows: Antifungal activity against Cryptococcus neoformans ATCC 90113 by CLSI method. Format: functional, organism-based.
The test system of data set [10] is Mus musculus. In words: Toxicity in Candida albicans B311 ATCC 32354-infected mouse assessed as change in body weight at 1 to 10 mg/kg, ip qd for 3 days. The data set is classed as organism-based. Also noted: dose 1-10 mg/kg, route intraperitoneal. Conditions: in vivo, 72 h.
In data set [11] the test system is Candida albicans. The data set is described as follows: Antifungal activity against Candida albicans B311 ATCC 32354-infected mouse assessed as reduction of CFU per gram of kidney at 1.2 mg/kg, ip qd for 3 days relative to control. Format: functional. Also noted: scale not given: the % may be the effect or the level left. Conditions: route intraperitoneal.
Another data set has as its system Vero. The data set is described as follows: Cytotoxicity against african green monkey Vero cells after 48 hrs by neutral red assay. The data set is classed as cell-based. Conditions: Chlorocebus sabaeus.
A short description of data set [12]: Toxicity in Candida albicans B311 ATCC 32354-infected mouse assessed as white deposits of unknown origin in peritoneal cavity at 20 mg/kg, ip qd for 3 days. Format: organism-based. More on the design: dose 20 mg/kg, route intraperitoneal. As to conditions: in vivo, 72 h.
The subject of data set [13] is Candida albicans. In words: Antifungal activity against Candida albicans B311 ATCC 32354-infected mouse assessed as reduction of CFU per gram of kidney at 1 mg/kg, ip qd for 3 days relative to control. The data set is classed as functional. Also noted: scale not given: the % may be the effect or the level left. Conditions: route intraperitoneal.
In data set [14] the test system is Candida albicans. In words: Antifungal activity against Candida albicans B311 ATCC 32354-infected mouse assessed as reduction of CFU per gram of kidney at 5 mg/kg, ip qd for 3 days relative to control. Format: functional. More on the design: scale not given: the % may be the effect or the level left. Conditions: route intraperitoneal.

Molecules are shown by their SMILES.

Usually IC50 stands for the point on the concentration scale where inhibition reaches its midpoint. Broadly, the MIC is the lowest concentration that inhibits growth of the organism. Regarding `COc1ccc2cc3sc4ccccc4c3[n+](C)c2c1.O=S(=O)([O-])C(F)(F)F`, the Activity was 10% with Cryptococcus neoformans [1]; 86% with Candida albicans [2]; 24% in the data set with Cryptococcus neoformans [5]; “Non-toxic” with Mus musculus [6]; 50% in the data set with Cryptococcus neoformans [7]; 26% with Cryptococcus neoformans [8]. Also, the Activity entry with Mus musculus [10] is recorded as “Non-toxic”; with Candida albicans [11], 99%; in [12], “Toxic”; with Candida albicans [13] it was 34%; with Candida albicans [14], 26%. The IC50 in the data set with Aspergillus fumigatus was 0.4 µg/mL; in the data set on Candida albicans [3] it was 1.5 µg/mL; with Cryptococcus neoformans [9], 6 µg/mL; with Vero it was greater than 10 µg/mL. The MIC against Aspergillus fumigatus is 0.6 µg/mL; with Candida albicans [3] it was 10 µg/mL; with Cryptococcus neoformans [9] it was greater than 20 µg/mL. In [4], this compound had an MTD at 72 h of 10 mg/kg.
